Results taken from US10774068B2, “Composition and methods for inhibiting mammalian sterile 20-like kinase 1” (The Scripps Research Institute, priority 2015, dated 2020).
Where two headings read alike, the source gives them in different places.

Experiments:
MST2 = MST2 (Homo sapiens (Human), UniProt Q13188); test: MST2 biochemical LanthaScreen Eu Kinase Binding Assay
Description: (§1) MST1 and MST2 biochemical LanthaScreen Eu Kinase Binding Assay was based on the binding and displacement of kinase tracer to the kinase of interest. Compounds in 1000×DMSO stock solution was dispensed using automated dispensing system (Labcyte) to 384 well Corning Microplate at 15 nL, 5 uL of Kinase buffer A was added to each well. Plates were shaken and incubated for 1 min to ensure well dissolution of compounds.

MST1 = MST1 (Homo sapiens (Human), UniProt Q13043); test: MST1 biochemical LanthaScreen Eu Kinase Binding Assay
Description: as §1

[1] = read-out: Kinase Binding assay-MST2 IC50
[2] = read-out: Kinase Binding assay-MST1 IC50

Chain of MST2 (Q13188 whole entry): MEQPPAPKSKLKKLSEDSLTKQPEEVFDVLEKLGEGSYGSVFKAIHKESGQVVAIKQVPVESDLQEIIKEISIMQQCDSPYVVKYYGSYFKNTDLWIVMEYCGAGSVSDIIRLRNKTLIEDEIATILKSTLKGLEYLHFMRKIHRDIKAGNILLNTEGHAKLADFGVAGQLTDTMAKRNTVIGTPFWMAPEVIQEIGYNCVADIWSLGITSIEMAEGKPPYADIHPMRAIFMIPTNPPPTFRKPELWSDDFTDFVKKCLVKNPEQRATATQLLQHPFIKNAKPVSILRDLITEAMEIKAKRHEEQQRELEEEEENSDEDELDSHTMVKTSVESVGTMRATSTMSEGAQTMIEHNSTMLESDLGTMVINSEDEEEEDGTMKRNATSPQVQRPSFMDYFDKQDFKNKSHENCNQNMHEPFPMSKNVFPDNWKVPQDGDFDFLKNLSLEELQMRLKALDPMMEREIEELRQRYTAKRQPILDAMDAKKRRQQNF
Chain of MST1 (Q13043 whole entry): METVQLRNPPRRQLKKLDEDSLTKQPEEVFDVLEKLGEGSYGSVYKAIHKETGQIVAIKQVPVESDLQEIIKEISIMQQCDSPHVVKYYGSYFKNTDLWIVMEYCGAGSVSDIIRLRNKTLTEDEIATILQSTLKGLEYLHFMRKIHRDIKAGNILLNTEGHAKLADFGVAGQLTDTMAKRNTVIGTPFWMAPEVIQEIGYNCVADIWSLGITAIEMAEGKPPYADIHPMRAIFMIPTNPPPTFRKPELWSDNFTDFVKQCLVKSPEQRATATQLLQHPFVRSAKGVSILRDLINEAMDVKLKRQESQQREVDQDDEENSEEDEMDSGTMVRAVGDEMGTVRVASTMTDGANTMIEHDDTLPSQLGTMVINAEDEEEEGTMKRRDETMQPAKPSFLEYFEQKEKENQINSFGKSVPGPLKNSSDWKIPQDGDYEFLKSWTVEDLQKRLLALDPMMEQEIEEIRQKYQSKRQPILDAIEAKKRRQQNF

Row | Structure (SMILES) | IC50 (MST2; [1]) | IC50 (MST1; [2]) | IC50 (MST2) | IC50 (MST1)
1 | CCOc1cc2ncc(C#N)c(Nc3ccc(OCc4ncccc4C)cc3C)c2cc1NC(=O)CCCN(C)C [Example 31] | < 100 nM | < 100 nM |  | 
2 | CCOc1cc2ncc(C#N)c(Nc3ccc(OCc4ccccn4)c(Cl)c3)c2cc1NC(=O)CCCN(C)C [Example 8] |  | < 100 nM | 100 to 1000 nM | 
3 | CCOc1cc2ncc(C#N)c(Nc3ccc(OCc4ncccc4Cl)c(Cl)c3)c2cc1NC(=O)CCCN(C)C [Example 35] | < 100 nM | < 100 nM |  | 
4 | CCOc1cc2ncc(C#N)c(Nc3ccc(OCc4ccccn4)c(Cl)c3)c2cc1NC(=O)CCCN1CCOCC1 [Example 99] |  | 100 to 1000 nM | 100 to 1000 nM | 
5 | CCOc1cc2ncc(C#N)c(Nc3ccc(OCc4ncccc4F)c(Cl)c3)c2cc1NC(=O)CCCN(C)C [Example 16] | < 100 nM | < 100 nM |  | 
6 | CCOc1cc2ncc(C#N)c(Nc3ccc(OCc4ccn(C)n4)c(Cl)c3)c2cc1NC(=O)CCCN(C)C [Example 67] |  | 100 to 1000 nM | 100 to 1000 nM | 
7 | CCOc1cc2ncc(C#N)c(Nc3ccc(NC(=O)c4ncccc4C)c(Cl)c3)c2cc1NC(=O)CCCN(C)C [Example 108, N-(2-chloro-4-(3-cyano-6-(4-(dimethylamino)butanamido)-7-ethoxyquinolin-4-ylamino)phenyl)-3-methylpicolinamide] |  |  | 100 to 1000 nM | 100 to 1000 nM
8 | CCOc1cc2ncc(C#N)c(Nc3ccc(OCc4cccc(Br)n4)c(Cl)c3)c2cc1NC(=O)CCCN(C)C [Example 3] | < 100 nM | < 100 nM |  | 
9 | CCOc1cc2ncc(C#N)c(Nc3ccc(OCc4nc(Br)ccc4C)c(Cl)c3)c2cc1NC(=O)CCCN(C)C [Example 76] | < 100 nM | < 100 nM |  | 
10 | CCOc1cc2ncc(C=O)c(Nc3ccc(OCc4ncccc4C)cc3Cl)c2cc1NC(=O)CCCN(C)C [Example 145, N-(4-(2-chloro-4-((3-methylpyridin-2-yl)methoxy)phenylamino)-7-ethoxy-3-formylquinolin-6-yl)-4-(dimethylamino)butanamide] |  |  | 1000 to 10000 nM | 1000 to 10000 nM
11 | CCOc1cc2ncc(C#N)c(Nc3ccc(OCc4ncccc4C)c(F)c3)c2cc1NC(=O)CCCN(C)C [Example 22] | < 100 nM | < 100 nM |  | 
12 | CCOc1cc2ncc(C#N)c(Nc3ccc(OCc4cccc(C#N)n4)c(Cl)c3)c2cc1NC(=O)CCCN(C)C [Example 5] |  | < 100 nM | 100 to 1000 nM | 
13 | CCOc1cc2ncc(C#N)c(Nc3ccc(OCc4cc(C)ccn4)c(Cl)c3)c2cc1NC(=O)CCCN(C)C [Example 10] |  | < 100 nM | 100 to 1000 nM | 
14 | CCOc1cc2ncc(C#N)c(Nc3ccc(OCc4nc5ccccc5nc4C)c(Cl)c3)c2cc1NC(=O)CCCN(C)C [Example 42] |  | < 100 nM | 100 to 1000 nM | 
15 | CCOc1cc2ncc(C#N)c(Nc3cc(Cl)c(OCc4ncccc4C)cc3C)c2cc1NC(=O)CCCN(C)C [Example 78] | < 100 nM | < 100 nM |  | 
16 | CCOc1cc2ncc(C#N)c(Nc3ccc(OCc4ncccc4C(F)(F)F)c(Cl)c3)c2cc1NC(=O)CCCN(C)C [Example 17] | < 100 nM | < 100 nM |  | 
17 | CCOc1cc2ncc(C#N)c(Nc3ccc(OCc4cccc(F)n4)c(Cl)c3)c2cc1NC(=O)CCCN(C)C [Example 4] | < 100 nM | < 100 nM |  | 
18 | Cc1cccnc1COc1ccc(Nc2ccnc3ccc(NC(=O)CCCN(C)C)cc23)c(Cl)c1 [Example 147, N-(4-(2-chloro-4-((3-methylpyridin-2-yl)methoxy)phenylamino)quinolin-6-yl)-4-(dimethylamino)butanamide] |  | 1000 to 10000 nM | 1000 to 10000 nM | 
19 | CCOc1cc2ncc(C#N)c(Nc3ccc(OCc4cccc(Cl)n4)c(Cl)c3)c2cc1NC(=O)CCCN(C)C [Example 7] | < 100 nM | < 100 nM |  | 
20 | CCOc1cc2ncc(C#N)c(Nc3ccc(OCc4ncccc4C(=O)OC)cc3Cl)c2cc1NC(=O)CCCN(C)C [Example 82] |  | 100 to 1000 nM | 100 to 1000 nM | 
21 | CCOc1cc2ncc(C#N)c(Nc3ccc(OCc4ncc(C)o4)c(Cl)c3)c2cc1NC(=O)CCCN(C)C [Example 39] |  | < 100 nM | 100 to 1000 nM | 
22 | CCOc1cc2ncc(C#N)c(Nc3ccc(OCc4ncccc4C#N)c(Cl)c3)c2cc1NC(=O)CCCN(C)C [Example 19] | < 100 nM | < 100 nM |  | 
23 | CCOc1cc2ncc(C#N)c(Nc3ccc(OCc4ncccc4C)c(OC)c3)c2cc1NC(=O)CCCN(C)C [Example 28] | < 100 nM | < 100 nM |  | 
24 | CCOc1cc2ncc(C#N)c(Nc3ccc(OCc4ncccc4CC)c(Cl)c3)c2cc1NC(=O)CCCN(C)C [Example 45] | < 100 nM | < 100 nM |  | 
25 | CCOc1cc2ncc(C#N)c(Nc3ccc(OCc4ccccn4)c(Cl)c3)c2cc1NC [Example 140, 4-(3-chloro-4-(pyridin-2-ylmethoxy)phenylamino)-7-ethoxy-6-(methylamino)quinoline-3-carbonitrile] |  |  | 1000 to 10000 nM | 100 to 1000 nM
26 | CCOc1cc2ncc(C#N)c(Nc3ccc(OCc4ncccc4C)c(OC)c3)c2cc1NC(=O)/C=C/CN(C)C [Example 92] | < 100 nM | < 100 nM |  | 
27 | CCOc1cc2ncc(C#N)c(Nc3ccc(OCc4cnc5c(c4)OCCO5)c(Cl)c3)c2cc1NC(=O)CCCN(C)C [Example 43] |  | 100 to 1000 nM | 1000 to 10000 nM | 

Row | Structure (SMILES) | IC50 (MST2; [1]) | IC50 (MST1; [2]) | IC50 (MST2) | IC50 (MST1)
28 | CCOc1cc2ncc(C#N)c(Nc3ccc(OCc4ncccc4OC)c(Cl)c3)c2cc1NC(=O)CCCN(C)C [Example 18] |  | < 100 nM | 100 to 1000 nM | 
29 | CCOc1cc2ncc(C#N)c(Nc3ccc(OCc4ccc(Cl)cn4)c(Cl)c3)c2cc1NC(=O)CCCN(C)C [Example 14] |  |  | 100 to 1000 nM | 100 to 1000 nM
30 | CCOc1cc2ncc(C#N)c(Nc3ccc(OCc4cc(OC)ccn4)c(Cl)c3)c2cc1NC(=O)CCCN(C)C [Example 37] |  | < 100 nM | 100 to 1000 nM | 
31 | CCOc1cc2ncc(C#N)c(Nc3ccc(OCc4ncccc4C)c(C)c3C)c2cc1NC(=O)CCCN(C)C [Example 33] | < 100 nM | < 100 nM |  | 
32 | CCOc1cc2ncc(C#N)c(Nc3ccc(O)cc3C)c2cc1NC(=O)CCCN(C)C [Example 139] |  | 100 to 1000 nM | 1000 to 10000 nM | 
33 | CCOc1cc2ncc(C#N)c(Nc3cc(Cl)c(OCc4ncccc4C)c(Cl)c3)c2cc1NC(=O)CCCN(C)C [Example 26] | < 100 nM | < 100 nM |  | 
34 | CCOc1cc2ncc(C#N)c(Nc3ccc(OCc4ncccc4C)cc3)c2cc1NC(=O)CCCN(C)C [Example 20] |  | < 100 nM | 100 to 1000 nM | 
35 | CCOc1cc2ncc(C#N)c(Nc3cc(Cl)c(OCc4ncccc4C)cc3Cl)c2cc1NC(=O)CCCN(C)C [Example 75] | < 100 nM | < 100 nM |  | 
36 | CCOc1cc2ncc(C#N)c(Nc3ccc(OCc4ncccc4C)cc3F)c2cc1NC(=O)CCCN(C)C [Example 23] | < 100 nM | < 100 nM |  | 
37 | CCOc1cc2ncc(C#N)c(Nc3ccc(OCc4ncccc4C)c(Br)c3)c2cc1NC(=O)CCCN(C)C [Example 24] | < 100 nM | < 100 nM |  | 
38 | CCOc1cc2ncc(C#N)c(Nc3ccc(OCc4ccc(F)cn4)c(Cl)c3)c2cc1NC(=O)CCCN(C)C [Example 13] |  |  | 100 to 1000 nM | 100 to 1000 nM
39 | CCOc1cc2ncc(C#N)c(Nc3ccc(OCc4cccc(C)n4)c(Cl)c3)c2cc1NC(=O)CCCN(C)C [Example 12] | < 100 nM | < 100 nM |  | 
40 | CCOc1cc2ncc(C#N)c(Nc3ccc(OCc4ncccc4C)c(Cl)c3)c2cc1NC(C)=O [Example 84, N-(4-(3-chloro-4-((3-methylpyridin-2-yl)methoxy)phenylamino)-3-cyano-7-ethoxyquinolin-6-yl)acetamide] | < 100 nM | < 100 nM |  | 
41 | CCOc1cc2ncc(C#N)c(Nc3ccc(OCc4nc(Br)ccc4C)cc3Cl)c2cc1NC(=O)CCCN(C)C [Example 77] | < 100 nM | < 100 nM |  | 
42 | CCOc1cc2ncc(C#N)c(Nc3ccc(OCc4ncccc4C(F)(F)F)cc3Cl)c2cc1NC(=O)CCCN(C)C [Example 81] | < 100 nM | < 100 nM |  | 
43 | CCOc1cc2ncc(C#N)c(Nc3cc(C)c(OCc4ncccc4C)c(C)c3)c2cc1NC(=O)CCCN(C)C [Example 32] |  | < 100 nM | 100 to 1000 nM | 
44 | CCOc1cc2ncc(C#N)c(Nc3ccc(OCc4cc(Cl)ccn4)c(Cl)c3)c2cc1NC(=O)CCCN(C)C [Example 2] | < 100 nM | < 100 nM |  | 
45 | CCOc1cc2ncc(C#N)c(Nc3ccc(OCc4ncccc4Br)c(Cl)c3)c2cc1NC(=O)CCCN(C)C [Example 15] | < 100 nM | < 100 nM |  | 
46 | CCOc1cc2ncc(C#N)c(Nc3ccc(OCc4ccccn4)c(Cl)c3)c2cc1NC(=O)CCCN1CCCCC1 [Example 97] |  | < 100 nM | 100 to 1000 nM | 
47 | CCOc1cc2ncc(C#N)c(Nc3ccc(OCc4ncccc4C)c(OC(F)(F)F)c3)c2cc1NC(=O)CCCN(C)C [Example 80] |  | 100 to 1000 nM | 100 to 1000 nM | 
48 | CCOc1cc2ncc(C#N)c(Nc3ccc(OCc4cc(C#N)ccn4)c(Cl)c3)c2cc1NC(=O)CCCN(C)C [Example 36] |  | 100 to 1000 nM | 100 to 1000 nM | 
49 | CCOc1cc2ncc(C#N)c(Nc3ccc(OCc4ncccc4C)c(Cl)c3)c2cc1NC(=O)CCCN(C)C [Example 1] | < 100 nM | < 100 nM |  | 
50 | CCOc1cc2ncc(C#N)c(Nc3ccc(OCc4ncccc4C)cc3C)c2cc1NC(=O)/C=C/CN(C)C [Example 93] | < 100 nM | < 100 nM |  | 
51 | CCOc1cc2ncc(C#N)c(Nc3ccc(OCc4ccccn4)c(F)c3)c2cc1NC(=O)CCCN(C)C [Example 9] |  | 100 to 1000 nM | 100 to 1000 nM | 
52 | CCOc1cc2ncc(C#N)c(Nc3cc(C)c(OCc4ncccc4C)cc3C)c2cc1NC(=O)/C=C/CN(C)C [Example 94] | < 100 nM | < 100 nM |  | 
53 | CCOc1cc2ncc(C#N)c(Nc3ccc(OCc4ccccn4)c(Cl)c3)c2cc1NC(=O)CCCOC [Example 102] |  | 100 to 1000 nM | 100 to 1000 nM | 
54 | CCOc1cc2ncc(C#N)c(Nc3cc(C)c(OCc4ncccc4C)cc3C)c2cc1NC(=O)CCCN(C)C [Example 34] | < 100 nM | < 100 nM |  | 
